Laboratory results as given in patent publication US20250320497A1, “COMPOSITIONS AND METHODS FOR TREATING HEPATITIS B VIRUS (HBV) INFECTION AND HBV-ASSOCIATED DISEASES” (priority 2022, published 2025).

Legend:
chronic HBV infection [1] = settings: PEG-IFNα add-on therapy; cited from earlier work
chronic HBV infection [2] = settings: cited from earlier work
chronic HBV infection [3] = settings: after 48 weeks of therapy; cited from earlier work
antigenic loop of HBsAg = test: Binding of HBC34 to HBsAg antigenic loop, genotypes and mutants; parameters: species or system HBV
Excerpt: (§1) In certain embodiments, the anti-HBV antibody is HBC34 or an engineered variant thereof. HBC34 are human antibodies against HBsAg with high neutralizing activity. […] The activity of HBC34, as measured diagnostically with an immunoassay, is 5000 IU/mg. As a comparison, the activity of HBIG is ˜1 IU/mg.

HBsAg = HBsAg (Hepatitis B virus genotype D subtype ayw, UniProt P03138); test: Activity measured diagnostically with an immunoassay; assay type: binding
Excerpt: as §1

chronic HBV infection [4] = settings: patients with chronic HBV infection; cited from earlier work
HBV = test: Preclinical pharmacology of SIRNA01 against HBV
Excerpt: In some embodiments, the siRNA that targets HBV mRNA is SIRNA01. SIRNA01 is a synthetic, chemically modified siRNA targeting HBV RNA with a covalently attached triantennary N-acetyl-galactosamine (GalNAc) ligand that allows for specific uptake by hepatocytes. […] An SIRNA can have multiple antiviral effects, including degradation of the pgRNA, thus inhibiting viral replication, and degradation of all viral mRNA transcripts, thereby preventing expression of viral proteins. This may result in the return of a functional immune response directed against HBV, either alone or in combination with other therapies. The ability of SIRNA01 to reduce HBsAg-containing noninfectious subviral particles also distinguishes it from currently available treatments.
SIRNA01 targets and inhibits expression of an mRNA encoded by an HBV genome according to NCBI Reference Sequence NC_003977.2 (GenBank Accession No. GI:21326584) (SEQ ID NO:1). More specifically, SIRNA01 targets an mRNA encoded by a portion of the HBV genome comprising the sequence […] (SEQ ID NO:2), which corresponds to nucleotides 1579-1597 of SEQ ID NO:1. Because transcription of the HBV genome results in polycistronic, overlapping RNAs, SIRNA01 results in significant inhibition of expression of most or all HBV transcripts.

For peginterferon-alfa-2a [PEG-IFNα], the “mean HBsAg reduction at Week 24” value (chronic HBV infection [1]) is given as 0.57 log10 IU/mL, the “HBsAg loss, patients overall” value (chronic HBV infection [2]; PEG-IFNα 180 g administered weekly for 48-52 weeks, approximately) is given as no more than 10% and the “rate of HBsAg loss, subset with low baseline HBsAg” value (chronic HBV infection [2]; baseline HBsAg less than approximately 1,000-1,500 IU/mL, with or without an NRTI) is given as 20-40%. For the same substance, the “percentage of patients with long-term viral control” value (chronic HBV infection [3]) was less than 10%.

For “HBC34: human antibody against HBsAg with high neutralizing activity; HC SEQ ID NO:56, LC SEQ ID NO:58”, the “HBV genotypes and mutants recognized” value (antigenic loop of HBsAg) was “all 10 HBV genotypes and 18 mutants”, the “affinity of binding to the antigenic loop of HBsAg” value (antigenic loop of HBsAg) was “pM range” and the “activity, as measured diagnostically with an immunoassay” value (HBsAg) was 5000 IU/mg.

In the case of “SIRNA01: synthetic, chemically modified GalNAc-conjugated siRNA targeting HBV RNA; sense strand SEQ ID NO:5, antisense strand SEQ ID NO:6 (sense GUGUGCACUUCGCUUCACA; antisense UGUGAAGCGAAGUGCACACUU; GalNAc-conjugated, chemically modified, pattern not given here)”, the “reduction in HBsAg when administered individually” value (chronic HBV infection [4]) is given as “substantial reductions in HBsAg”, the “pharmacological activity against HBV genotypes” value (HBV) is given as “pharmacologically active against HBV genotypes A through J” and the “effect in preclinical models” value (HBV; preclinical models) is given as “inhibit viral replication, translation, and secretion of HBsAg”.
